Assays:
Type in all cases: biochemical
[1] = target: T1, procaspase-3 (Homo sapiens, UniProt P42574); assay: Executioner procaspase-3 activation assay (Ac-DEVD-AFC fluorogenic substrate); conditions: incubation with compound for 5 h at 37° C.; 100 nM procaspase; read-out: Procaspase Activation 3
T1 construct: His6 (C); made in house; host or cells: E. coli BL21(DE3)RP, pET-23b
T1 sequence (P42574 1-277): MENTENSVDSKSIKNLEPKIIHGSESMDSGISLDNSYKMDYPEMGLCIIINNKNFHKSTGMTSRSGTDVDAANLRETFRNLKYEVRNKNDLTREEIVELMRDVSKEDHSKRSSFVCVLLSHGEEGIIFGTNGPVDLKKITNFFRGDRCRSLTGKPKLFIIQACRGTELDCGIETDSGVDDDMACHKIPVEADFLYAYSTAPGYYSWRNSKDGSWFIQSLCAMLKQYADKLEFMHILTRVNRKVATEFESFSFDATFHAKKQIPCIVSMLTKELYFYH
Summary of the method: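 Procaspase-3 at 100 nM was incubated with activating compounds (100 nM to 100 uM) in 50 mM HEPES pH 7.4, 50 mM KCl, 1 mM DTT and 0.01% Triton-X100, the detergent limiting aggregation artefacts. Protein, substrate and inhibitor were kept as frozen aliquots and thawed just before use.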

[2] = target: T2, procaspase-6 (Homo sapiens, UniProt P55212); assay: Executioner procaspase-6 activation assay (Ac-VEID-AFC fluorogenic substrate); conditions: incubation with compound for 5 h at 37° C.; 100 nM procaspase
T2 sequence (P55212 1-293): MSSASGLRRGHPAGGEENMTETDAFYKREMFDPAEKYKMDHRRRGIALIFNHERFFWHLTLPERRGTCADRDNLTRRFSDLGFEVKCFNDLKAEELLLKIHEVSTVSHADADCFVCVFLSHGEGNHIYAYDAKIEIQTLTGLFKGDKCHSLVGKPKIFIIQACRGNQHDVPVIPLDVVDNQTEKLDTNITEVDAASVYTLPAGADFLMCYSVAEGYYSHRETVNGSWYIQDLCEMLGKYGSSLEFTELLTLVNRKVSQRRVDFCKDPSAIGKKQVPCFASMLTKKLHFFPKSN
Summary of the method: (§1)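 Procaspase at 100 nM incubated with compound (100 nM–100 μM) in 50 mM HEPES pH 7.4, KCl, DTT, 0.01% Triton X-100, 3% DMSO, 37 °C for 5 h; then 25 μM Ac-DEVD-AFC (procaspase-7) or Ac-VEID-AFC (procaspase-6), kinetic fluorescence 30 min (ex 365/em 495); EC50 reported.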

[3] = target: T3, procaspase-7 (Homo sapiens, UniProt P55210); assay: Executioner procaspase-7 activation assay (Ac-DEVD-AFC fluorogenic substrate); conditions: incubation with compound for 5 h at 37° C.; 100 nM procaspase
T3 construct: His6 (C); made in house; host or cells: E. coli BL21(DE3)RP, pET-21b
T3 sequence (P55210 1-303): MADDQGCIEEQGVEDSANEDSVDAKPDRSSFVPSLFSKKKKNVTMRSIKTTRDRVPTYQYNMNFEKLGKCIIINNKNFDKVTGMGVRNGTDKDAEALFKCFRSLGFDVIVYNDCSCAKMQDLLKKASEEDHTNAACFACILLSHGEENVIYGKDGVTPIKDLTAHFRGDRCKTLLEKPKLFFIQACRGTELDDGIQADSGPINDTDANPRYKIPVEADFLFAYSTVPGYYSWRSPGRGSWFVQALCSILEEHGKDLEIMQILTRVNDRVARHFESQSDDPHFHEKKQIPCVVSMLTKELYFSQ
Summary of the method: as §1

SMILES | EC50 [1] [µM] | EC50 [2] [µM] | EC50 [3] [µM]
COc1cncc(-c2cccc(NC(=O)c3cc4cccc(OC)c4oc3=O)c2)c1 [compound 132, 8-Methoxy-2-oxo-2H-chromene-3-carboxylic acid [3-(5-methoxy-pyridin-3-yl)-phenyl]-amide] | > 100 | > 100 | > 100
COc1ncc(-c2cccc(NC(=O)c3cc4cccc(O)c4oc3=O)c2)cn1 [compound 133, 8-Hydroxy-2-oxo-2H-chromene-3-carboxylic acid [3-(2-methoxy-pyrimidin-5-yl)-phenyl]-amide] | > 100 | > 100 | > 100
COc1ncc(-c2cccc(NC(=O)c3cc4cccc(OC)c4oc3=O)c2)cn1 [compound 134, 8-Methoxy-2-oxo-2H-chromene-3-carboxylic acid [3-(2-methoxy-pyrimidin-5-yl)-phenyl]-amide] | > 100 | > 100 | > 100
O=C(Nc1cccc(-c2cncnc2)c1)c1cc2cccc(O)c2oc1=O [compound 135, 8-Hydroxy-2-oxo-2H-chromene-3-carboxylic acid (3-pyrimidin-5-yl-phenyl)-amide] | > 100 | > 100 | > 100
COc1cccc2cc(C(=O)Nc3cccc(-c4cncnc4)c3)c(=O)oc12 [compound 136, 8-Methoxy-2-oxo-2H-chromene-3-carboxylic acid (3-pyrimidin-5-yl-phenyl)-amide] | 50 to 200 | 50 to 200 | > 100
CN(C)c1ccc(-c2cccc(NC(=O)c3cc4cccc(O)c4oc3=O)c2)cn1 [compound 137, 8-Hydroxy-2-oxo-2H-chromene-3-carboxylic acid [3-(6-dimethylamino-pyridin-3-yl)-phenyl]-amide] | > 100 | > 100 | > 100
COc1cccc2cc(C(=O)Nc3cccc(-c4ccc(N(C)C)nc4)c3)c(=O)oc12 [compound 138, 8-Methoxy-2-oxo-2H-chromene-3-carboxylic acid [3-(6-dimethylamino-pyridin-3-yl)-phenyl]-amide] | > 100 | > 100 | > 100
O=C(Nc1cccc(-c2ccc(O)nc2)c1)c1cc2cccc(O)c2oc1=O [compound 139, 8-Hydroxy-2-oxo-2H-chromene-3-carboxylic acid [3-(6-hydroxy-pyridin-3-yl)-phenyl]-amide] | > 100 | > 100 | > 100
COc1cccc2cc(C(=O)Nc3cccc(-c4ccc(O)nc4)c3)c(=O)oc12 [compound 140, 8-Methoxy-2-oxo-2H-chromene-3-carboxylic acid [3-(6-hydroxy-pyridin-3-yl)-phenyl]-amide] | > 100 | > 100 | > 100
COc1ncccc1-c1cccc(NC(=O)c2cc3cccc(O)c3oc2=O)c1 [compound 141, 8-Hydroxy-2-oxo-2H-chromene-3-carboxylic acid [3-(2-methoxy-pyridin-3-yl)-phenyl]-amide] | > 100 | > 100 | 10 to 50
COc1ncccc1-c1cccc(NC(=O)c2cc3cccc(OC)c3oc2=O)c1 [compound 142, 8-Methoxy-2-oxo-2H-chromene-3-carboxylic acid [3-(2-methoxy-pyridin-3-yl)-phenyl]-amide] | > 100 | > 100 | > 100
N#Cc1ccc(-c2cccc(NC(=O)c3cc4cccc(O)c4oc3=O)c2)cc1F [compound 143, 8-Hydroxy-2-oxo-2H-chromene-3-carboxylic acid (4′-cyano-3′-fluoro-biphenyl-3-yl)-amide] | > 100 | > 100 | > 100
COc1cccc2cc(C(=O)Nc3cccc(-c4ccc(C#N)c(F)c4)c3)c(=O)oc12 [compound 144, 8-Methoxy-2-oxo-2H-chromene-3-carboxylic acid (4′-cyano-3′-fluoro-biphenyl-3-yl)-amide] | > 100 | > 100 | > 100
N#Cc1cc(-c2cccc(NC(=O)c3cc4cccc(O)c4oc3=O)c2)ccc1F [compound 145, 8-Hydroxy-2-oxo-2H-chromene-3-carboxylic acid (3′-cyano-4′-fluoro-biphenyl-3-yl)-amide] | > 100 | > 100 | > 100
COc1cccc2cc(C(=O)Nc3cccc(-c4ccc(F)c(C#N)c4)c3)c(=O)oc12 [compound 146, 8-Methoxy-2-oxo-2H-chromene-3-carboxylic acid (3′-cyano-4′-fluoro-biphenyl-3-yl)-amide] | > 100 | > 100 | > 100
N#Cc1cccc(-c2cccc(NC(=O)c3cc4cccc(O)c4oc3=O)c2)c1 [compound 147, 8-Hydroxy-2-oxo-2H-chromene-3-carboxylic acid (3′-cyano-biphenyl-3-yl)-amide] | > 100 | > 100 | > 100
COc1cccc2cc(C(=O)Nc3cccc(-c4cccc(C#N)c4)c3)c(=O)oc12 [compound 148, 8-Methoxy-2-oxo-2′-chromene-3-carboxylic acid (3′-cyano-biphenyl-3-yl)-amide] | > 100 | > 100 | > 100
O=C(Nc1cccc(-c2cn[nH]c2)c1)c1cc2cccc(O)c2oc1=O [compound 149, 8-Hydroxy-2-oxo-2H-chromene-3-carboxylic acid [3-(1H-pyrazol-4-yl)-phenyl]-amide] | > 100 | > 100 | > 100
COc1cccc2cc(C(=O)Nc3cccc(-c4cn[nH]c4)c3)c(=O)oc12 [compound 150, 8-Methoxy-2-oxo-2H-chromene-3-carboxylic acid [3-(1H-pyrazol-4-yl)-phenyl]-amide] | > 100 | > 100 | > 100
Cn1nccc1-c1cccc(NC(=O)c2cc3cccc(O)c3oc2=O)c1 [compound 151, 8-Hydroxy-2-oxo-2H-chromene-3-carboxylic acid [3-(2-methyl-2H-pyrazol-3-yl)-phenyl]-amide] | 10 to 50 | > 100 | 10 to 50
COc1cccc2cc(C(=O)Nc3cccc(-c4ccnn4C)c3)c(=O)oc12 [compound 152, 8-Methoxy-2-oxo-2H-chromene-3-carboxylic acid [3-(2-methyl-2H-pyrazol-3-yl)-phenyl]-amide] | > 100 | > 100 | > 100
Cc1noc(C)c1-c1cccc(NC(=O)c2cc3cccc(O)c3oc2=O)c1 [compound 153, 8-Hydroxy-2-oxo-2H-chromene-3-carboxylic acid [3-(3,5-dimethyl-isoxazol-4-yl)-phenyl]-amide] | 10 to 50 | > 100 | 10 to 50
COc1cccc2cc(C(=O)Nc3cccc(-c4c(C)noc4C)c3)c(=O)oc12 [compound 154, 8-Methoxy-2-oxo-2H-chromene-3-carboxylic acid [3-(3,5-dimethyl-isoxazol-4-yl)-phenyl]-amide] | > 100 | > 100 | > 100
O=C(Nc1cccc(-c2ccn[nH]2)c1)c1cc2cccc(O)c2oc1=O [compound 155, 8-Hydroxy-2-oxo-2H-chromene-3-carboxylic acid [3-(2H-pyrazol-3-yl)-phenyl]-amide] | > 100 | > 100 | > 100
COc1cccc2cc(C(=O)Nc3cccc(-c4ccn[nH]4)c3)c(=O)oc12 [compound 156, 8-Methoxy-2-oxo-2H-chromene-3-carboxylic acid [3-(2H-pyrazol-3-yl)-phenyl]-amide] | > 100 | > 100 | > 100
O=C(Nc1cccc(-c2ccc3[nH]c(=O)[nH]c3c2)c1)c1cc2cccc(O)c2oc1=O [compound 157, 8-Hydroxy-2-oxo-2H-chromene-3-carboxylic acid [3-(2-oxo-2,3-dihydro-1H-benzoimidazol-5-yl)-phenyl]-amide] | > 100 | > 100 | > 100

Reference: US8642788B2, “Activators of executioner procaspases 3, 6 and 7” (The Regents of the University of California, priority 2008, dated 2014)
